From patent US9675579B2, “Tetrahydrocannabivarin for use in the treatment of nausea and vomiting” (GW Pharma Limited, priority 2013, dated 2017)
“Also recorded” adds a separate entry of the source. Like-named read-outs stand apart in the source and are kept apart here.

What was measured:
Sprague-Dawley rats [1] = test: Conditioned gaping to saccharin paired with the compound (Example 1)
Method: Naïve male Sprague-Dawley rats, obtained from Charles River Laboratories (St Constant, Quebec) were single-housed in shoebox cages in the colony room at an ambient temperature of 21° C. with a 12/12 light/dark schedule (lights off at 8 AM) and maintained on ad-libitum food and water.
Drugs and Materials: All cannabinoid compounds were prepared in a vehicle (VEH) of ethanol/Cremophor (Sigma)/saline (SAL; 1:1:18) and administered intraperitonally (i.p.).
SR was prepared at 2.5, 10 and 20 mg/kg and administered at a volume of 2 ml/kg. CBDV was prepared at 2.5 and 10 mg/kg and administered at a volume of 2 ml/kg. A high dose of CBDV was prepared at 200 mg/kg and administered at a volume 10 ml/kg. THCV was prepared at 2.5, 10 and 20 mg/kg and administered at a volume of 2 ml/kg.
Procedures: Rats were implanted with intraoral cannulae under isofluorane anesthesia. […]
Seventy two hours after the conditioning trial, the rats were returned to the TR chamber and intraorally infused with 0.1% saccharin solution and their orofacial reactions were video recorded with the feed from the video camera fire-wired into a computer. The video tapes are later scored (at 1/2 speed) by a trained observer blind to the experimental conditions for the behaviour of gaping (large openings of the mouth and jaw, with lower incisors exposed).

Sprague-Dawley rats [2] = test: Potentiation or attenuation of LiCl-induced conditioned gaping (Example 2); assay type: in vivo, rat; conditions: for LiCl-induced conditioned gaping reactions relative to group VEH: rats, drug-free test 72 h later
Method: Animals and Drugs and Materials were as described in Example 1 above.
Following recovery from intraoral cannulation surgery, the rats received the adaptation trial to the TR test as described in Example 1 above. On the day of conditioning (saccharin palatability test), the rats were injected with VEH (n=10), 2.5 mg/kg SR (n=10), 2.5 mg/kg THC (n=6), 10 mg/kg THC (n=7), 2.5 mg/kg THCV (n=10) or 10 mg/kg THCV (n=6), 2.5 mg/kg CBDV (n=10) or 200 mg/kg CBDV (n=13). Thirty min later, each rat was intraorally infused with 0.1% saccharin solution while their orofacial responses were video recorded from the mirror beneath the chamber. Immediately following the 2 min intraoral infusion of saccharin, the rats were injected with 20 ml/kg or 0.15 M LiCl.
Seventy-two hours later, the rats received a drug-free test trial, during which they received a 2 min intraoral infusion of 0.1% saccharin solution and the frequency of gaping was measured. The videotapes were later scored (at 1/2 speed) by an observer blind to the experimental conditions for the hedonic reaction of tongue protrusions (at conditioning and testing). As well, to determine other non-specific effects of the drug during conditioning, the conditioning tapes were scored for bouts of active locomotion (forward movement of paws on the floor of the cage).

CB1 receptor [3] = molecular target: CB1 receptor (Homo sapiens, UniProt P21554); conditions: in vitro, Thomas et al., 2005; cited from earlier work
CB2 receptor = CB2 receptor (Homo sapiens, UniProt P34972); conditions: in vitro, Thomas et al., 2005; cited from earlier work
CB1 receptor [4] = molecular target: CB1 receptor (Mus musculus, UniProt P47746); conditions: low doses (<3 mg/kg), Pertwee et al., 2007; cited from earlier work
rodent = conditions: cited from earlier work; for suppression of toxin-induced conditioned gaping: rodent model of conditioned nausea
[5] = 2.5 mg/kg i.p. 30 min before saccharin-LiCl pairing

CB1 receptor (Mus musculus, UniProt P47746), sequence (P47746 whole entry): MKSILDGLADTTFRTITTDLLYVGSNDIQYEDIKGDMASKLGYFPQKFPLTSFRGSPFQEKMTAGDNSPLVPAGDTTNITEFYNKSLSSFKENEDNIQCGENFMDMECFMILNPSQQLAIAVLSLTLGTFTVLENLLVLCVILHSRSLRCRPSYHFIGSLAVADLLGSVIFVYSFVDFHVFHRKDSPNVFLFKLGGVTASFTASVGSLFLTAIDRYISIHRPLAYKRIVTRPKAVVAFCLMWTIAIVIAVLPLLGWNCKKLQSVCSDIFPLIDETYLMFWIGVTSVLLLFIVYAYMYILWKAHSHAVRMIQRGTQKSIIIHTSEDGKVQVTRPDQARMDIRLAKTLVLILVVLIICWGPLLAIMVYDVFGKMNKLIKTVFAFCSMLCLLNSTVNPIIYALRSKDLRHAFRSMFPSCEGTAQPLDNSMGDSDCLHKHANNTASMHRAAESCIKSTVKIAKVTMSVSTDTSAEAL
CB1 receptor (Homo sapiens, UniProt P21554), sequence (P21554 whole entry): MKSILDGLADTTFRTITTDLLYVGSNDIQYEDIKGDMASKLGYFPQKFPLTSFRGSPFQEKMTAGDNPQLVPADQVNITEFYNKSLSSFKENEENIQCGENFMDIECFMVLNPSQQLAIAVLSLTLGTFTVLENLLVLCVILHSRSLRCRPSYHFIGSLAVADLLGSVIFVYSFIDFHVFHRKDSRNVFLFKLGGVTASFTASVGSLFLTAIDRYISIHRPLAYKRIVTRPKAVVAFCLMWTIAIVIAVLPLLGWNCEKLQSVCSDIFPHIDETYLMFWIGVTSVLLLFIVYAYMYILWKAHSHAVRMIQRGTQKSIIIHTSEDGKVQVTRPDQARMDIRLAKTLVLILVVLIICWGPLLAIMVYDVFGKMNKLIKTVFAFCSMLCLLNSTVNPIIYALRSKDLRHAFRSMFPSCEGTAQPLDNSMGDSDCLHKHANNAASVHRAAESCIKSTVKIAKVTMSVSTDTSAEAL
CB2 receptor, sequence (P34972 whole entry): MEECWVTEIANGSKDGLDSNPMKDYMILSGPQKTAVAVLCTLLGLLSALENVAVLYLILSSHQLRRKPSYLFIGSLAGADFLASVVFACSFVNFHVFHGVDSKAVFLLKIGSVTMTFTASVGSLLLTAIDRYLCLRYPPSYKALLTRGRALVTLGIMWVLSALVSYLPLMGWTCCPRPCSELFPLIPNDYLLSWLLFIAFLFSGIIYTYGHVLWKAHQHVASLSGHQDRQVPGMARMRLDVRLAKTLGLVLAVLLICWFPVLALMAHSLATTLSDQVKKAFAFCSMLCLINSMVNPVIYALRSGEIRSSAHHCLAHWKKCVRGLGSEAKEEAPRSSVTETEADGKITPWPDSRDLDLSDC

Structure (SMILES): CCCc1cc(O)c2c(c1)OC(C)(C)[C@@H]1CCC(C)=C[C@@H]21 [THCV, tetrahydrocannabivarin]
- conditioned gaping reactions (nausea-like reactions) elicited by 0.1% saccharin previously paired with the compound (Sprague-Dawley rats [1]; rats, i.p., all doses tested (SR 10, 20; AM251 10; THCV 10, 20; CBDV 10, 200 mg/kg), drug-free test 72 h after conditioning, vs VEH and other groups): did not produce apparent inverse agonist properties; also recorded: neither CBDV (10 or 200 mg/kg) nor THCV (10 or 20 mg/kg) produced the nausea-like profile of conditioned gaping
- human equivalent dose of the dose that blocked LiCl-induced nausea (Sprague-Dawley rats [2]; calculated from the rat dose, Km rat 6, Km human 37): greater than 0.4 mg/kg
- dose that blocked LiCl-induced nausea (Sprague-Dawley rats [2]; in rats): greater than 2.5 mg/kg
- LiCl-induced conditioned gaping reactions relative to group VEH (Sprague-Dawley rats [2]; [5]): marginally attenuated LiCl-induced gaping reactions
- LiCl-induced conditioned gaping reactions relative to group VEH (Sprague-Dawley rats [2]; 10 mg/kg i.p. 30 min before saccharin-LiCl pairing, 10 mg/kg): no gaping reactions; also recorded: eliminated LiCl-induced nausea
- action at the CB1 receptor (CB1 receptor [3]): acts as a CB1 and CB2 receptor antagonist
- action at the CB2 receptor (CB2 receptor): acts as a CB1 and CB2 receptor antagonist
- action at the CB1 receptor in vivo (CB1 receptor [4]): act as a CB1 receptor antagonist

Structure (SMILES): C=C(C)[C@@H]1CCC(C)=C[C@H]1c1c(O)cc(CCCCC)cc1O [CBD, cannabidiol]
- suppression of toxin-induced conditioned gaping (rodent; 5 mg/kg): suppress toxin-induced conditioned gaping

Structure (SMILES): C=C(C)[C@@H]1CCC(C)=C[C@H]1c1c(O)cc(CCC)cc1O [CBDV]
- LiCl-induced conditioned gaping reactions relative to group VEH (Sprague-Dawley rats [2]; [5]): marginally attenuated LiCl-induced gaping reactions
- LiCl-induced conditioned gaping reactions relative to group VEH (Sprague-Dawley rats [2]; 200 mg/kg i.p. 30 min before saccharin-LiCl pairing, 200 mg/kg): significantly attenuated the LiCl-induced gaping reactions; also recorded: statistically significant anti-nausea effect

Structure (SMILES): Cc1c(C(=O)NN2CCCCC2)nn(-c2ccc(Cl)cc2Cl)c1-c1ccc(Cl)cc1 [SR, rimonabant]
- conditioned gaping, 20 mg/kg compared with 10 mg/kg (Sprague-Dawley rats [1]; rat, in vivo): marginally more gaping
- LiCl-induced conditioned gaping reactions relative to group VEH (Sprague-Dawley rats [2]; [5]): potentiated LiCl-induced gaping reactions
- potentiation of the nausea produced by LiCl (potentiated gaping) (rodent; 2.5 mg/kg, sub-threshold for nausea on its own, pre-treatment prior to saccharin-LiCl pairing, drug-free test 72 hours after conditioning): potentiated the nausea produced by LiCl

Structure (SMILES): CCCCCc1cc(O)c2c(c1)OC(C)(C)[C@@H]1CCC(C)=C[C@@H]21 [THC, tetrahydrocannabinol]
- LiCl-induced conditioned gaping reactions relative to group VEH (Sprague-Dawley rats [2]; [5]): significantly attenuated the LiCl-induced gaping reactions
- LiCl-induced conditioned gaping reactions relative to group VEH (Sprague-Dawley rats [2]; 10 mg/kg i.p. 30 min before saccharin-LiCl pairing): significantly attenuated the LiCl-induced gaping reactions
- suppression of toxin-induced conditioned gaping (rodent; 0.5 mg/kg): suppress toxin-induced conditioned gaping
